Measurements taken from ChEMBL document CHEMBL4038345, “Design, Synthesis, and Biological Evaluation of Novel Selenium-Containing Isocombretastatins and Phenstatins as Antitumor Agents” (J Med Chem, 2017).
Activity calls are given as the source filed them. The rule behind the calls is not given here.

How the values were obtained:
A549 [1] = assay: cells; conditions: Homo sapiens, A549, 48 h
A549 [2] = assay: Induction of apoptosis in human A549 cells assessed as early apoptotic cells at 1 nM for 24 hrs by annexin V-FITC/propidium iodide staining-based flow cytometry analysis (reference value: 0.82%); type: functional
HeLa = assay: cells; conditions: Homo sapiens, 48 h
A549 [3] = assay: Induction of apoptosis in human A549 cells assessed as live cells at 1 nM for 24 hrs by annexin V-FITC/propidium iodide staining-based flow cytometry analysis (reference value: 99.15%); type: functional
HCT-116 = assay: cells; conditions: Homo sapiens, HCT-116, 48 h
A549 [4] = assay: Disruption of mitochondrial membrane potential in human A549 cells assessed as intact mitochondrial membrane at 5 nM after 24 hrs by JC1 staining-based flow cytometry method (reference value: 99.18%); type: functional
A549 [5] = assay: Induction of apoptosis in human A549 cells assessed as early apoptotic cells at 10 nM for 48 hrs by annexin V-FITC/propidium iodide staining-based flow cytometry analysis (reference value: 0.97%); type: functional
A2780 = assay: cells; conditions: Homo sapiens, A2780, 48 h
Description: Antiproliferative activity against human A2780 cells after 48 hrs by MTT assay

A549 [6] = assay: Induction of apoptosis in human A549 cells assessed as live cells at 5 nM for 24 hrs by annexin V-FITC/propidium iodide staining-based flow cytometry analysis (reference value: 99.15%); type: functional
A549 [7] = assay: Induction of apoptosis in human A549 cells assessed as early apoptotic cells at 5 nM for 24 hrs by annexin V-FITC/propidium iodide staining-based flow cytometry analysis (reference value: 0.82%); type: functional
MDA-MB-231 = assay: Antiproliferative activity against human MDA-MB-231 cells after 48 hrs by MTT assay; conditions: MDA-MB-231, 48 h
[8] = Resistance index, ratio of IC50 for human A549/CDDP cells to IC50 for human A549 cells; type: functional
A549 [9] = assay: Disruption of mitochondrial membrane potential in human A549 cells at 1 to 10 nM after 24 hrs by JC1/Hoechst 33342 staining-based fluorescence microscopic method; type: functional, cell-based
A549 [10] = assay: Induction of apoptosis in human A549 cells assessed as late apoptotic cells at 10 nM for 24 hrs by annexin V-FITC/propidium iodide staining-based flow cytometry analysis; type: functional
A549 [11] = assay: Induction of apoptosis in human A549 cells assessed as necrotic cells at 1 nM for 24 hrs by annexin V-FITC/propidium iodide staining-based flow cytometry analysis (reference value: 0.03%); type: functional
A549 [12] = assay: Induction of apoptosis in human A549 cells assessed as late apoptotic cells at 10 nM for 48 hrs by annexin V-FITC/propidium iodide staining-based flow cytometry analysis; type: functional
[13] = Half life in Sprague-Dawley rat by UV-based HPLC-MS/MS analysis; type: ADME; conditions: in vivo
A549/CDDP = assay: Antiproliferative activity against human A549/CDDP cells after 48 hrs by MTT assay; type: functional, cell-based
A549 [14] = assay: Induction of apoptosis in human A549 cells assessed as necrotic cells at 5 nM for 48 hrs by annexin V-FITC/propidium iodide staining-based flow cytometry analysis (reference value: 0.02%); type: functional
A549 [15] = assay: Induction of apoptosis in human A549 cells assessed as late apoptotic cells at 1 nM for 48 hrs by annexin V-FITC/propidium iodide staining-based flow cytometry analysis; type: functional

Structure (SMILES): C=C(c1ccc(OC)c(O)c1)c1cc(OC)c(OC)c([Se]C)c1
- IC50 (A549 [1]): 3.9 nM
- Activity (A549 [2]): 3.63%
- IC50 (HeLa): 3 nM
- Activity (A549 [3]): 96.34%
- IC50 (HCT-116): 12 nM
- Activity (A549 [4]): 57.63%
- Activity (A549 [5]): 42.57%
- IC50 (A2780): 6 nM
- Activity (A549 [6]): 64.43%
- Activity (A549 [7]): 31.36%
- IC50 (MDA-MB-231): 2.2 nM
- Ratio IC50 [8]: 8.8
- Activity (A549 [9]): Active
- Activity (A549 [10]): 1.45%
- Activity (A549 [11]): 0.2%
- Activity (A549 [12]): 20.44%
- half-life [13]: 1.24 h
- IC50 (A549/CDDP): 34.4 nM
- Activity (A549 [14]): 10.45%
- Activity (A549 [15]): 2.86%
